Laboratory results reported in patent US11938137B2, “Lipid prodrugs of mycophenolic acid and uses thereof” (PureTech LYT, Inc., priority 2017, dated 2024).

Tests used:
[1] = cited from earlier work
[2] = Lymphatic transport assay in mesenteric lymph-duct cannulated rats; type: in vivo, rat; conditions: total MPA related compound, intraduodenal infusion, anesthetised mesenteric lymph-duct cannulated rats; class symbols
Experimental: In order to assess the lymphatic transport of disclosed lipid prodrugs in rats, the mesenteric lymph ducts of the rats used in this study were cannulated to allow continual collection of mesenteric lymph. Lipid formulations containing the compound of interest were then administered to the animals, lymph was collected, and drug concentrations in the lymph samples were quantified.
Lipid-based formulations of the compounds of the invention or control compounds were prepared as previously described (Trevaskis, N. L. et al., Pharmaceutical Research, 2005, 22(11), 1863-1870, WO 2016/023082, and WO 2017/041139, hereby incorporated by reference.
In brief, either 1 or 2 mg of test prodrug, 40 mg oleic acid and 25 mg Tween 80 were mixed in a glass vial and incubated at 37° C. for 12-18 h to equilibrate. An aqueous phase consisting of 5.6 ml phosphate buffered saline (PBS, pH 7.4) was subsequently added to the lipid phase (MPA was dissolved in PBS for the preparation of MPA containing formulations) and the formulation emulsified by ultrasonication with a Misonix XL 2020 ultrasonic processor (Misonix, Farmingdale, NY, USA) equipped with a 3.2-mm microprobe tip running at 30% of the maximal amplitude of 240 μm and a frequency of 20 kHz for 2 min at room temperature. Doses for administering to more than one animal can be prepared in one batch by suitably increasing the quantities given above. Drug/prodrug concentrations in all formulations were verified using HPLC-MS.
Male Sprague-Dawley (SD) rats were selected for the lymphatic transport studies. Rats (typically 240-320 g) were maintained on a standard diet and fasted overnight with free access to water prior to experiments.
Anesthetized rats were placed on a heated pad at 37° C. and cannulas inserted into the duodenum (for formulation administration and rehydration), mesenteric lymph duct (for lymph collection), and carotid artery (in cases where blood collection was conducted). Post-surgery, rats were re-hydrated for 0.5 h via intraduodenal infusion of normal saline at 2.8 mL/h. The lipid formulations were infused into the duodenum at 2.8 mL/h for 2 h after which, normal saline was infused at 2.8 mL/h for the remainder of the experiment. Lymph was continuously collected for up to 8 h into pre-weighed Eppendorf tubes containing 10 μL of 1,000 IU/mL heparin. The collection tubes were changed hourly and lymph flow was measured gravimetrically. Aliquots of hourly lymph samples were stored at −20° C. prior to assay.
Drug concentration in lymph is expressed as total drug and includes free drug and drug associated with different glycerides. Lymph samples are first treated with a lipase or other appropriate conditions to liberate free active agent prior to measurement of active agent levels in the lymph. Treatment with a lipase or other hydrolysis conditions liberates free active agent from any corresponding re-esterified glycerides. Porcine pancreatic lipase is appropriate for this purpose. Alternatively, hydrolysis with 0.5 M NaOH may be used. For MPA “phenol” prodrugs (i.e. prodrugs linked to the triglyceride at the aromatic —OH group of MPA), hydrolysis was performed with 0.5 M NaOH except for the lymph samples collected from 3 rats in the group of compound I-20 (MPA-O-C12α′βMe-TG), which were hydrolyzed by porcine pancreatic lipase.
Transport of compounds into lymph during each hourly collection period was calculated from the product of the volume of lymph collected and the measured concentrations in lymph. For fluorescently-labelled compounds such as a BDP-conjugate, the concentrations of total compound may be measured by fluorescence spectroscopy without hydrolysis.
The results of the lymphatic transport assays are summarized in Table 2, below, and FIGS. 1-19. Table 2 summarizes lymphatic transport of total MPA related compound (% of administered dose) following intraduodenal infusion to anaesthetised, mesenteric lymph-duct cannulated rats. […]

[3] = In vitro release of MPA from prodrugs in plasma supplemented with lipoprotein lipase (LPL); type: in vitro ADME, rat; conditions: for Percentage MPA release at 60 min in LPL supplemented rat plasma: n = 3 unless specified otherwise
Experimental: The percentage of MPA released at 60 minutes in LPL-supplemented rat plasma was also determined for selected compounds. […] The designation “**” indicates a release % of >25% to 50%. The designation “***” indicates a release % of >50% to 75%. The designation “****” indicates a release % of >75%.
In order to probe the release of free drug from TG prodrugs in the systemic circulation, prodrugs were incubated with plasma (rat, mouse, dog, pig or human) supplemented with lipoprotein lipase (LPL, 200 IU/ml). LPL is a key enzyme required for the hydrolysis of lipoprotein associated TG in the systemic circulation and is therefore expected to be a key contributor to lipolysis of the re-esterified drug-TG construct in plasma, largely via liberation of fatty acids in the sn-1 and the sn-3 position of the TG-mimetic, prior to drug release from the 2′ position via esterase hydrolysis. LPL is […] is tethered to the luminal surface of vascular endothelial cells under physiological conditions. In the current in vitro studies, plasma was therefore supplemented with LPL to better reflect the in vivo situation. To start hydrolysis, 10 μl of LPL solution (10,000 IU/ml) was added to a mixture of 10 μl of prodrug solution (1 mg/ml dissolved in acetonitrile) and 500 μl of blank plasma. The mixture was incubated at 37° C. Samples (20 μl) of the incubation solution were taken at 0, 5, 15, 30, 60, 90, 120 and 180 minutes post-incubation and added to 180 μl of MeCN to stop lipolysis. The mixture was vortexed and centrifuged at 4500×g for 5 minutes to precipitate proteins prior to analysis. The supernatant was analyzed by HPLC-MS/MS for the potential products (MG form, acid form, and free drug) of prodrug hydrolysis.

[4] = Prodrug lymph node study in mice (free MPA in mesenteric and peripheral lymph nodes); type: in vivo, mouse; conditions: oral multiple dose study (2 times daily for 2 days, samples on 3rd day)
From the text: This experiment included a single and multiple dose study.

Structure (SMILES)	bioavailability of testosterone after oral administration of the undecanoate ester [1] [%]	Cumulative lymphatic transport % dose (Mean ± SD, or Range if n = 2) [2]	Percentage MPA release at 60 min in LPL supplemented rat plasma [3]	monoglyceride (MG) peak ([3]; after 180 min, rat plasma supplemented with LPL)	concentrations of free MPA in mesenteric lymph nodes compared with MPA [4]
CCCCCCCCCCC(=O)O[C@H]1CC[C@H]2[C@@H]3CCC4=CC(=O)CC[C@]4(C)[C@H]3CC[C@]12C [testosterone undecanoate]	< 5	–	–	–	–
CCCCCCCCCCCCCCCC(=O)OCC(COC(=O)CCCCCCCCCCCCCCC)OC(=O)CC(C)CCCCCCCC(C)C(=O)OCCCCC(=O)Oc1c(C/C=C(\C)CCC(=O)OC)c(OC)c(C)c2c1C(=O)OC2 (stereo not shown) [I-22, (E)-12-(1,3-Bis(palmitoyloxy)propan-2-yl) 1-(5-((6-methoxy-5-(6-methoxy-3-methyl-6-oxohex-2-en-1-yl)-7-methyl-3-oxo-1,3-dihydroisobenzofuran-4-yl)oxy)-5-oxopentyl) 2,10-dimethyldodecanedioate]	–	A (greater than 10% (>10%))	*** (a release % of >50% to 75%)	almost completely disappeared	–
CCCCCCCCCCCCCCCC(=O)OCC(COC(=O)CCCCCCCCCCCCCCC)OC(=O)CC/C(C)=C/Cc1c(O)c2c(c(C)c1OC)COC2=O [I-34, MPA-2-TG]	–	A (greater than 10% (>10%))	*** (a release % of >50% to 75%)	–	Much higher concentrations
